Experimental data published in article PMC2981508 (Science (New York, N.Y.), 2009).

Columns and labels:
[1] = test system: AR target genes PSA and TMPRSS2 in LNCaP/AR cells; experiment: qRT-PCR of AR-dependent genes in LNCaP/AR cells; format: cell-based, human; conditions: androgen-depleted media 5% CSS, 8 hours, 1 and 10 μM
[2] = test system: DU145 prostate cancer xenografts; experiment: AR-negative DU145 prostate cancer xenografts; set-up: species or system mice; conditions: mouse, in vivo
LNCaP/AR tumors = experiment: LNCaP/AR xenograft model of CRPC in castrate male mice
[3] = test system: AR recruitment to PSA enhancer and TMPRSS2 enhancer in parental LNCaP cells; experiment: Chromatin immunoprecipitation of AR in parental LNCaP cells; format: cell-based, human
LNCaP/AR xenografts = experiment: Ki-67 staining of LNCaP/AR xenografts; format: in vivo, mice; conditions: after 5 days of treatment
[4] = test system: PSA and TMPRSS2 in parental LNCaP cells; experiment: Antagonism of R1881 induction of PSA and TMPRSS2 in parental LNCaP cells; format: cell-based, human
progesterone receptor = biological target: T1, progesterone receptor (Homo sapiens, UniProt P06401); experiment: in vitro fluorescence polarization binding assay
T1 sequence (P06401 1-933): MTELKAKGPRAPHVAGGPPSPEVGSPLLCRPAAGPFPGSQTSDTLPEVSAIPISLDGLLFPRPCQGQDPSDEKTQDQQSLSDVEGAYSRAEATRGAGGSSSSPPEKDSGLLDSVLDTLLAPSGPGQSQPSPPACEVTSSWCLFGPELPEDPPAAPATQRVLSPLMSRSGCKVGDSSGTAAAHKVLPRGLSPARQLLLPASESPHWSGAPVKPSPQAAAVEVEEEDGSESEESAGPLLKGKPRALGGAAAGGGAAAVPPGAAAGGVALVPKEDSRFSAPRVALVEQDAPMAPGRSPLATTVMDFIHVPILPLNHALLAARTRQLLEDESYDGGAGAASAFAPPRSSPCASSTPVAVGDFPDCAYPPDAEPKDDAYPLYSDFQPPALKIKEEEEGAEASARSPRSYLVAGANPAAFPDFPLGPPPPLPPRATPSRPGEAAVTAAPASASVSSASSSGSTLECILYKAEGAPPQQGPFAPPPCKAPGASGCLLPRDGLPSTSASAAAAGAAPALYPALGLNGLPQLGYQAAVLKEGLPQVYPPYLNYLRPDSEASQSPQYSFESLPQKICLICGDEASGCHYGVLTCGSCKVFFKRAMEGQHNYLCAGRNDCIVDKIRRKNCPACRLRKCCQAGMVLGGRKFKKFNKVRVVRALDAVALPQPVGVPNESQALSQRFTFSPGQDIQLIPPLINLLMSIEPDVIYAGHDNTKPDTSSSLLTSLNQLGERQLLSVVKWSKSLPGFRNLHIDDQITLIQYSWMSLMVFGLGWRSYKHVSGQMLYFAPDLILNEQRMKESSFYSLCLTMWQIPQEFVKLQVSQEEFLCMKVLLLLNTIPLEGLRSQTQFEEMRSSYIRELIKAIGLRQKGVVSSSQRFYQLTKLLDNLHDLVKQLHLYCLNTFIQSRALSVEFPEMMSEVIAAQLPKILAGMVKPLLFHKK

VCaP cells = experiment: VCaP apoptosis; format: cell-based, human; conditions: 10 μM, 1 or 3 days, PARP cleavage
[5] = test system: AR recruitment to PSA enhancer and TMPRSS2 enhancer in LNCaP/AR cells; experiment: Chromatin immunoprecipitation of AR in LNCaP/AR cells; format: cell-based, human
[6] = Plasma levels in LNCaP/AR tumor-bearing mice; conditions: 10 mg/kg oral daily, 20 hours after the final dose on day 28
AR = biological target: T2, AR (Homo sapiens, UniProt P10275); experiment: in vitro studies of AR activity; format: cell-based
T2 sequence (P10275 1-920): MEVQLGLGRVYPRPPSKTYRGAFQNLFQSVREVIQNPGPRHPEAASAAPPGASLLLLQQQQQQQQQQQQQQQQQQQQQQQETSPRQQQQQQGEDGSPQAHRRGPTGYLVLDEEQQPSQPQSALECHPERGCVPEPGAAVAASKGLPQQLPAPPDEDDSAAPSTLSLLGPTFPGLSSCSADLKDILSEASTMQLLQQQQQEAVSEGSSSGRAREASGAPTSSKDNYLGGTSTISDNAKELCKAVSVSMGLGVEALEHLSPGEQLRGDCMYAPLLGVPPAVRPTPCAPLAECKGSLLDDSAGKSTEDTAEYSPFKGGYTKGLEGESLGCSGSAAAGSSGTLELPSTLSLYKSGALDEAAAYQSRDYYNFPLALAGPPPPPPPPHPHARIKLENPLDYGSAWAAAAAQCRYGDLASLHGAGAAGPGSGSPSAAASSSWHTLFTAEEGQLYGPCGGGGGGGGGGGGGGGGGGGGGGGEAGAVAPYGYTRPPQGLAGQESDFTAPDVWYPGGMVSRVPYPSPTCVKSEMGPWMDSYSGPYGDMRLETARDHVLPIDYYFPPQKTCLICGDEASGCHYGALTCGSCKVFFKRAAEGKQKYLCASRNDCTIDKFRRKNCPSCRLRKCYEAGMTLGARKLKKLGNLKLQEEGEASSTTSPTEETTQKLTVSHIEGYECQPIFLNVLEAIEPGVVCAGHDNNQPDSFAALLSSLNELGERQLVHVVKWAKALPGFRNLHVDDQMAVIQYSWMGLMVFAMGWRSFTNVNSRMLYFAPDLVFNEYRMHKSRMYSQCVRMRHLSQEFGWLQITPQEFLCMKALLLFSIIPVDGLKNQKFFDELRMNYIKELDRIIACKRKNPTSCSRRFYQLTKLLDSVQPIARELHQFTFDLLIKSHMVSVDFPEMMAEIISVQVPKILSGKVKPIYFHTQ

CNC(=O)c1ccc(N2C(=S)N(c3ccc(C#N)c(C(F)(F)F)c3)C(=O)C23CCC3)cc1F [RD162]
Expression of AR target genes PSA and TMPRSS2 (agonist activity) [1]: do not have agonist activity | growth of AR-negative DU145 xenografts [2]: neither bicalutamide nor RD162 impaired the growth | antitumor activity (LNCaP/AR tumors; 0.1 mg/kg): some slowing of tumor growth | antitumor activity (LNCaP/AR tumors; 1 mg/kg): a few tumor regressions | Tumors no longer palpable (of 12) (LNCaP/AR tumors; 10 mg/kg oral daily, 28 days): three tumors | Tumors regressed (12 tumors per group) (LNCaP/AR tumors; 10 mg/kg oral daily, 28 days): all twelve tumors | Tumors regressed by greater than 50 percent (of 12) (LNCaP/AR tumors; 10 mg/kg oral daily, 28 days): nine tumors | Median time to tumor progression (LNCaP/AR tumors; continual 10 mg/kg oral daily treatment): 186 days | AR recruitment to PSA enhancer and TMPRSS2 enhancer [3]: Neither RD162 nor MDV3100 recruited AR | cellular proliferation by Ki-67 staining (LNCaP/AR xenografts): substantially reduced | Antagonism of induction of PSA and TMPRSS2 by R1881 [4]: antagonized induction | binding to progesterone receptor (progesterone receptor): little to no binding | Apoptosis in VCaP cells (VCaP cells): induced apoptosis | AR recruitment to PSA enhancer and TMPRSS2 enhancer [5]: Neither RD162 nor MDV3100 recruited AR | Plasma levels (mean) [6]: 24 µM | concentrations expected to block AR activity based on the in vitro studies (AR): 1 to 10 µM
